Paper PMC9913425, “Pentacyclic Triterpenoids-Based Ionic Compounds: Synthesis, Study of Structure–Antitumor Activity Relationship, Effects on Mitochondria and Activation of Signaling Pathways of Proliferation, Genome Reparation and Early Apoptosis” (Cancers, 2023)

What was measured:
U937 = assay: In vitro cytotoxicity, IC50 by flow cytometry (Guava ViaCount); format: cell-based
How it was run: (§1)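 Suspension lines kept in RPMI 1640 with 10% FBS and […] at 37 °C, 5% CO2; cells seeded at 5 × 10^4 per well and incubated overnight before compound exposure. Viability counted by flow cytometry with Guava ViaCount staining to derive IC50.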

A2780 = assay: as above; format: cell-based, human
How it was run: as §1

HL60 = assay: as above; format: cell-based, human
How it was run: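 Cells were grown at 37 °C under 5% CO2; the Jurkat, K562 and HL60 lines were kept in RPMI 1640 with 10% FBS, […] and penicillin–streptomycin. Cells were seeded at 5 × 10^4 per well and incubated overnight. IC50 was derived from Guava ViaCount flow cytometry.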

Jurkat tumor cells = assay: Release of cytochrome c from mitochondria (anti-cytochrome C FITC, cytofluorimetry); format: cell-based; details: compound at IC50, incubation 3 h
Protocol: Staurosporine (an inhibitor of most kinases in the cell) was taken as a control compound.
Figure 2 Release of cytochrome C from mitochondria under the influence of ionic liquids in Jurkat tumor cells. Anti-cytochrome C FITC antibodies were used for staining. […] Incubation with test compounds was 3 h. TEXT PRINTED IN THE PICTURE: (b) 344: Negative 30.82%; Positive 64.67% | (c) 214: Negative 40.58%; Positive 56.16% | (d) 346: Negative 19.43%; Positive 76.96% DOUBTS OF THE COPYIST ABOUT THIS PICTURE: The picture prints only sample codes (344, 214, 346; each followed by '/ E3'), not compound numbers or names; these codes are used as labels. / Panel a (sample code 211-4h, Negative 5.82%, Positive 93.68%) appears to be an untreated control, not a substance, and is left out. / Print is small: b, Negative 30.82% (8 or 6); c, Positive 56.16% (6 or 8); d, Positive 76.96% (6 or 8, 9 or 8).

STAT3 = assay: Luminex xMAP Multi-Pathway 9-plex, tyrosine-phosphorylated STAT3; format: cell-based; details: Jurkat cells; 12a 0.006 µM, 13d 0.004 µM per 100,000 cells; up to 12 h; compared with STAT5 (3-fold)
Source text: The determination of proteins in a cell by Luminex xMAP technology is characterized by the presence of multiplex multiparametric analysis with the simultaneous use of a multiplex of antibodies with a fluorescent label and magnetic particles, thereby resulting in an increase in the sensitivity of the technique and expansion of the dynamic range, as well as an increase in detection accuracy. Luminex XMAP technology provides a simultaneous analysis of a sufficient number of different proteins in various types of biological fluids (plasma, serum, cerebrospinal fluid, follicular fluid, tissue lysate, etc.) and in cell supernatants. […]
Magnetic microspheres (stained inside with two fluorescent dyes) in combination with monoclonal antibodies against the analyzed analytes (the main intracellular kinases in this case) are incubated with the samples and standards; then, the samples/standards are incubated with biotinylated monoclonal antibodies against the analyzed analytes and, finally, with a solution of streptavidin–phycoerythrin. The Luminex technology identifies the different proteins present in each well and converts the mean fluorescence intensity (MFI) of each measured cytokine to pg/mL using software and standard curves. […]
The specific role of STAT3 and STAT5 was assessed by changes in the content of tyrosine-phosphorylated forms of these proteins (STAT3(ph) and STAT5(ph)). […]

Chk1 = assay: Luminex xMAP DNA Damage/Genotoxicity panel, phosphorylated Chk1; format: cell-based; details: Jurkat cells; 12a 0.006 µM, 13d 0.004 µM per 100,000 cells; 6 and 12 h
Source text: [Worded in the source for another target; used here, by the source, with some conditions changed.] (§2) The determination of proteins in a cell by Luminex xMAP technology is characterized by the presence of multiplex multiparametric analysis with the simultaneous use of a multiplex of antibodies with a fluorescent label and magnetic particles, thereby resulting in an increase in the sensitivity of the technique and expansion of the dynamic range, as well as an increase in detection accuracy. Luminex XMAP technology provides a simultaneous analysis of a sufficient number of different proteins in various types of biological fluids (plasma, serum, cerebrospinal fluid, follicular fluid, tissue lysate, etc.) and in cell supernatants. Consequently, multiplexing saves time/costs and ensures the same conditions for the measurements, which is essential for significance and statistical processing.
(§3) Magnetic microspheres (stained inside with two fluorescent dyes) in combination with monoclonal antibodies against the analyzed analytes (the main intracellular kinases in this case) are incubated with the samples and standards; then, the samples/standards are incubated with biotinylated monoclonal antibodies against the analyzed analytes and, finally, with a solution of streptavidin–phycoerythrin. The Luminex technology identifies the different proteins present in each well and converts the mean fluorescence intensity (MFI) of each measured cytokine to pg/mL using software and standard curves. This approach is successfully applied in fundamental and clinical research. In this work, we analyzed various protein analytes that make up the phosphorylated and non-phosphorylated fractions of the main kinases in the signaling pathways: CREB, JNK, NFkB, p38, ERK1/2, Akt, p70S6K, STAT3, STAT5 proteins in six samples of lysates of Jurkat tumor cells by Luminex technology (MILLIPLEX® MAP 9-Plex Multi-Pathway 9-plex Magnetic Bead Kit).

γH2AX = assay: Luminex xMAP DNA Damage/Genotoxicity panel, phosphorylated γH2AX; format: cell-based; details: Jurkat cells; 6 and 12 h
Source text: as §2, with “processing. Simultaneous measurement of cytokines by bead multiplex analysis has certain similarities with ELISA, in particular the use of antibodies, but has a fundamental difference in using magnetic fluorescent beads coupled to antikinase monoclonal antibodies.” for “processing.”
as §3
Phosphorylation of histone H2AX at serine 139 (γH2AX) is an early stage in the cellular response to DNA damage, when the damage brings about formation of a double-strand break (DSB). γH2AX foci, considered as markers of DNA double-strand breaks, are easily detected by immunofluorescence microscopy and flow cytometry. The two main signaling pathways ATM/Chk2 and ATR/Chk1 respond to DNA damage and both lead to H2AX phosphorylation, but the ATR/Chk1 pathway causes γH2AX formation to a much lesser extent. The role of γH2AX in DNA repair is also discussed.
Incubation time with the test compounds was 6 and 12 h. p < 0.001 (***).

p53 = assay: Luminex xMAP panel, p53 protein content; format: cell-based; details: Jurkat cells; 12a 0.006 µM, 13d 0.004 µM per 100,000 cells; first 6 h

| Compound | IC50 (U937; Homo sapiens, U-937, U937 cells) [nM] | IC50 (A2780; Homo sapiens, A2780, A2780 cells) [nM] | IC50 (HL60; Homo sapiens, HL-60, HL60 cells) [nM] | cytochrome c release from mitochondria (cytochrome C Negative cells) (Jurkat tumor cells) [%] | increase in the content of STAT3 (STAT3) | content of phosphorylated checkpoint kinase Chk1 (Chk1) | level of γH2AX (accumulation) (γH2AX) | expression of p53 protein (p53) | IC50 (U937; U937 cells) [nM] | IC50 (A2780; A2780 cells) [nM] | IC50 (HL60; HL60 cells) [nM] |
| --- | --- | --- | --- | --- | --- | --- | --- | --- | --- | --- | --- |
| CC1(C)CC[C@]2(C(=O)OCCCCCC[n+]3ccccc3)CC[C@]3(C)C(=CCC4[C@@]5(C)CC[C@H](O)C(C)(C)C5CC[C@]43C)C2C1 (stereo partly drawn) [12a, 1-(6-{[(3β)-3-Hydroxyolean-12-en-28-oyl]oxy}hexyl)-pyridinium bromide] | 6 ± 1 | 21 ± 2 | 3 ± 1 | 40.58 | to a lesser extent | significantly decreases | low levels | significantly increased | – | – | – |
| CC(=O)[O-].C[n+]1ccn(CCCCCCOC(=O)[C@]23CCC(C)(C)CC2C2=CCC4[C@@]5(C)CC[C@H](O)C(C)(C)C5CC[C@@]4(C)[C@]2(C)CC3)c1 (stereo partly drawn) [13d, 1-(6-{[(3β)-3-Hydroxyolean-12-en-28-oyl]oxy}hexyl)-3-methylimidazolium Acetate] | – | – | – | 19.43 | to a lesser extent | significantly decreases | low levels | significantly increased | 5 ± 1 | 16 ± 2 | 2 ± 1 |
